Read-outs that look alike come from different tables or passages of the source.
Columns and labels:
PXR = experiment: zebrafish in vivo liver transcription, semi-quantitative RT-PCR: PXR; details: ip, 15 mg/kg, 48 h
Procedure: (§1) Adult zebrafish were purchased from a commercial fish supplier and acclimatized for at least two-weeks in 20 L tanks with flow-through freshwater at 22°C. A single dose of 15 mg/kg of 5α-cyprinol, 5β-cyprinol 27-sulfate, 5α-scymnol or 5β-scymnol-27 sulfate, dissolved in saline, was injected intraperitoneally. A control group was injected with saline. After 48 hr, the animals were decapitated and livers of three fish (n = 5 each group) were removed, pooled and weighed, totalizing 15 fish per group. Fish were not fed throughout the experimental period. […].
(§2) To study the transcription of CYP3C1, ABCB5, PXR, GAPDH and β-actin genes in zebrafish, initial fragments of these genes were identified (Genbank: AW202769, Genbank: BQ284593, Genbank: AAM22215, Genbank: BC083506, Genbank: AF057040, respectively). The PCR primers for CYP3C1 were designed using MacVector Software and primers for MDR1 were designed using Primer 3 Software (Whitehead Institute for Biomedical Research; [75]). Primer pairs for amplifying CYP3C1 fragment were 5'-[…]-3' (sense) and 5'-[…]-3' (antisense) and for amplifying ABCB5 were 5'-[…]-3' (sense) and 5'-[…]-3' (antisense). The PCR primers for PXR were 5'-[…]-3' (sense) and 5'-[…]-3' (antisense), for amplifying GAPDH were 5'-[…]-3' (sense) and 5' […] 3' (antisense) and for β-actin were 5'-[…]-3' (sense) and 5'-[…]-3' (antisense). RNA was isolated using Trizol (Invitrogen) according to manufacturer's instructions. Purity and concentration of RNA of each sample were verified at 260 nm. The RNA integrity was checked by non-denaturing gel electrophoresis using 1 μg of total RNA in each sample.
(§3) Two micrograms of total RNA were reversed transcribed using Ominiscript RT Kit (Qiagen, Valencia, CA, USA). cDNA concentration was checked at 260 nm, and the amount adjusted to 1 μg to perform semi-quantitative RT-PCR. The expected size of the PXR, Cyp3C1, abcb5, GAPDH and β-actin fragments were 577, 477, 218, 234 and 550 bp, respectively. Biotools DNA polymerase (Biotools B&M Labs, S.A., Madrid, Spain) kit was used for the PCR reaction using a thermocycler Personal Mastercycler (Eppendörf) with the following PCR program: 5 cycles of 94°C for 5 s, 72°C for 35 s; 5 cycles of 94°C for 5 s, 70°C for 10 s, 72°C for 35 s; and 23, 24, 35, 15 and 24 cycles (PXR, Cyp3C1, abcb5, GAPDH and β-actin, respectively) of 94°C for 5 s, 61, 54, 48, 49 and 61°C for 10 s (PXR, Cyp3C1, abcb5, GAPDH and β-actin, respectively), and 72°C for 35 s. The PXR, CYP3C1, ABCB5 and GAPDH transcript levels were quantified using Gel-Quant™ (Multiplexed Biotechologies) and β-actin was used to normalize the data. The Shapiro-Wilk W test was used to evaluate normality. When data were parametric the analysis was performed using Student t test; otherwise Mann Whitney U test was applied. […]

Zebrafish VDR = target: T1, Zebrafish VDR (Danio rerio, UniProt Q9PTN2); experiment: luciferase reporter transactivation assay in HepG2-NTCP cells, GAL4/zfVDR LBD chimera with tk-UAS-Luc; format: cell-based
T1 sequence (Q9PTN2 121-453): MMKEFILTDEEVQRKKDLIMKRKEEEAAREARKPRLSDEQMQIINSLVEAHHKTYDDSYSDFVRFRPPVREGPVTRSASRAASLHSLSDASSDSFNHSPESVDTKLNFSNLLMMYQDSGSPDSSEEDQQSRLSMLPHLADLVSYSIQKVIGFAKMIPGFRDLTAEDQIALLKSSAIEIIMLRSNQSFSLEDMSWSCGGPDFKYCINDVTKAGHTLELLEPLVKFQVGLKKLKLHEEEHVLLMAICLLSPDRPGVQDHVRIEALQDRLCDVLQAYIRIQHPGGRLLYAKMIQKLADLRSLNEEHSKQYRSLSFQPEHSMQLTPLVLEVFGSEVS

β-actin = experiment: zebrafish in vivo liver transcription, semi-quantitative RT-PCR: β-actin; details: ip, 15 mg/kg, 48 h
Procedure: as §1, §2, §3

Xenopus laevis VDR = target: T2, Xenopus laevis VDR (Xenopus laevis, UniProt O13124); experiment: luciferase reporter transactivation assay in HepG2-NTCP cells, GAL4/xlVDR LBD chimera with tk-UAS-Luc; format: cell-based
T2 sequence (O13124 90-422): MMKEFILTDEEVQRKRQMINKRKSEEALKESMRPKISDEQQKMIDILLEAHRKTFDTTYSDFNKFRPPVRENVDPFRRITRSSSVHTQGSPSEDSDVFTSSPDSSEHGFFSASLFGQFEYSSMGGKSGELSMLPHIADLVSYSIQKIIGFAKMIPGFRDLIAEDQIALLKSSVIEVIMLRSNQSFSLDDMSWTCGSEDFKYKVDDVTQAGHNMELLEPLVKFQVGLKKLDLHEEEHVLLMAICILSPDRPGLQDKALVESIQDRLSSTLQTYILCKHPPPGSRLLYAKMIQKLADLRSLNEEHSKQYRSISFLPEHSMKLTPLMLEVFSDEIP

[1] = system: MDR1 (tentatively classified as ABCB5 in zebrafish); experiment: zebrafish in vivo liver transcription, semi-quantitative RT-PCR: MDR1; details: ip, 15 mg/kg, 48 h
Procedure: as §1, §2, §3

[2] = system: glyceraldehyde 3-phosphate dehydrogenase (GAPDH); experiment: zebrafish in vivo liver transcription, semi-quantitative RT-PCR: GAPDH; details: 15 mg/kg intraperitoneally, single dose, 48 hr
Procedure: Adult zebrafish were purchased from a commercial fish supplier and acclimatized for at least two-weeks in 20 L tanks with flow-through freshwater at 22°C. A single dose of 15 mg/kg of 5α-cyprinol, 5β-cyprinol 27-sulfate, 5α-scymnol or 5β-scymnol-27 sulfate, dissolved in saline, was injected intraperitoneally. A control group was injected with saline. After 48 hr, the animals were decapitated and livers of three fish (n = 5 each group) were removed, pooled and weighed, totalizing 15 fish per group. Fish were not fed throughout the experimental period.
as §2, with “The PCR primers for CYP3C1 were designed using MacVector Software and primers for MDR1 were designed using Primer 3 Software (Whitehead Institute for Biomedical Research; [75]).” left out, “Purity and concentration of RNA of each sample were verified at 260 nm.” left out
The PXR, CYP3C1, ABCB5 and GAPDH transcript levels were quantified using Gel-Quant™ (Multiplexed Biotechologies) and β-actin was used to normalize the data. The Shapiro-Wilk W test was used to evaluate normality. When data were parametric the analysis was performed using Student t test; otherwise Mann Whitney U test was applied.

Sea lamprey VDR = target: T3, Sea lamprey VDR (Petromyzon marinus, UniProt Q7ZZY9); format: cell-based
T3 sequence (Q7ZZY9 92-406): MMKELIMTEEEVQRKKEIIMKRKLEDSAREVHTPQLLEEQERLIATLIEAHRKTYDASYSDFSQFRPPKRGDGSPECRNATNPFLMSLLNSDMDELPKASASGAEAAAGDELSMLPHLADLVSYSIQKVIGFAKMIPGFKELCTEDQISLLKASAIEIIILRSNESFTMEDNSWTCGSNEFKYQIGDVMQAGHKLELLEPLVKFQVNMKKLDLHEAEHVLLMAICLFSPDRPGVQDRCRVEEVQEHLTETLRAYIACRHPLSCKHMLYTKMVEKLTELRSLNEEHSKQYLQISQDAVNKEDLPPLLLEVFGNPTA

CYP3C1 = experiment: zebrafish in vivo liver transcription, semi-quantitative RT-PCR: CYP3C1; details: ip, 15 mg/kg, 48 h
Procedure: as §1, §2, §3

zebrafish PXR [3] = details: cited from earlier work
zebrafish PXR [4] = system: zebrafish PXR
[5] = system: testosterone 6β-hydroxylation; experiment: testosterone hydroxylation (HPLC) in sea lamprey primary hepatocytes; format: cell-based; details: concentration ranges per compound
Procedure: (§4) 100 μL of sample, calibration standard, or quality material standard were pipetted into separate microcentrifuge tubes and mixed with 100 μL of methanol. Samples were vortexed and centrifuged at 13,000 rpm for 4 min. The supernatant was then injected into the HPLC.
(§5) The flow rate was 1.2 mL/min and total run time was 25 min.

[6] = system: flurbiprofen 4-hydroxylation activity (CYP2C-like activity)
EROD activity = experiment: EROD assay in sea lamprey primary hepatocytes; details: 24–48 hr exposure
[7] = system: testosterone 6β-hydroxylation activity (CYP3A-like activity); experiment: in vitro; details: zebrafish
Procedure: (§6) The cells are cultured at 26°C in ambient atmosphere.
as §4, §5

[8] = system: ethoxyresorufin O-deethylase (EROD) activity (CYP1A-like activity); experiment: in vitro
Procedure: as §6

[9] = screening for activators, at least three concentrations of each drug

| SMILES | liver transcription of PXR (PXR) | Effect on zebrafish VDR (Zebrafish VDR; [9]) | liver transcription of β-actin (β-actin) [arbitrary units] | Effect on Xenopus laevis VDR (Xenopus laevis VDR; [9]) | liver transcription of MDR1 (ABCB5) [1] | liver transcription of GAPDH [2] | Effect on sea lamprey VDR (Sea lamprey VDR; [9]) | liver transcription of CYP3C1 (CYP3C1) | activity at recombinant zebrafish PXR (zebrafish PXR [3]) | activation of recombinant zebrafish PXR (zebrafish PXR [4]) | effect on testosterone 6β-hydroxylation [5] | Effect on zebrafish VDR (Zebrafish VDR) | maximal flurbiprofen 4-hydroxylation activities [6] | Effect on Xenopus laevis VDR (Xenopus laevis VDR) | Effect on sea lamprey VDR (Sea lamprey VDR) | effect on EROD activity (EROD activity) | EC50 [7] [µM] | effect on EROD activity [8] |
| --- | --- | --- | --- | --- | --- | --- | --- | --- | --- | --- | --- | --- | --- | --- | --- | --- | --- | --- |
| C[C@H](CCC(O)C(CO)CO)[C@H]1CC[C@H]2[C@@H]3[C@H](O)C[C@@H]4C[C@H](O)CC[C@]4(C)[C@H]3C[C@H](O)[C@]12C (stereo partly drawn) [5β-scymnol, 5β-cholestan-3α,7α,12α,24,26,27-hexol] | 0.92 ± 0.38 arbitrary units normalized to β-actin | No effect | 62.2 ± 21.8 | No effect | 1.08 ± 0.17 arbitrary units normalized to β-actin | 1.17 ± 0.58 arbitrary units normalized to β-actin | No effect | 1.17 ± 0.50 arbitrary units normalized to β-actin | both inactive at recombinant zebrafish PXR | – | – | – | – | – | – | – | – | – |
| CCC1(c2ccccc2)C(=O)NC(=O)NC1=O [Phenobarbital] | – | – | – | – | – | – | – | – | – | all activate recombinant zebrafish PXR | None of these compounds produced significant increases in testosterone 6β-hydroxylation | No effect | greater than 50 nmol/min/mg protein | No effect | No effect | did not alter EROD activity | 928 ± 109 | found not to affect EROD activity |

Reference: PMC2263054, “Functional evolution of the vitamin D and pregnane X receptors” (BMC Evolutionary Biology, 2007)
